Source: patent publication US12667568B2, “Compositions and methods for the treatment and diagnosis of cancer” (The General Hospital Corporation, priority 2020, dated 2026)

Key:
Type in all cases: cell-based
[1] = target: T1, TRDMT1 (Homo sapiens, UniProt O14717); experiment: m5C staining at TA-KR DNA damage sites
T1 construct: SCE WT cells were transfected with TA-KR and were cultured with 2.5 μM/L compound YW-1842 or not for 6 hours; endogenous in cells
T1 sequence (O14717 1-391): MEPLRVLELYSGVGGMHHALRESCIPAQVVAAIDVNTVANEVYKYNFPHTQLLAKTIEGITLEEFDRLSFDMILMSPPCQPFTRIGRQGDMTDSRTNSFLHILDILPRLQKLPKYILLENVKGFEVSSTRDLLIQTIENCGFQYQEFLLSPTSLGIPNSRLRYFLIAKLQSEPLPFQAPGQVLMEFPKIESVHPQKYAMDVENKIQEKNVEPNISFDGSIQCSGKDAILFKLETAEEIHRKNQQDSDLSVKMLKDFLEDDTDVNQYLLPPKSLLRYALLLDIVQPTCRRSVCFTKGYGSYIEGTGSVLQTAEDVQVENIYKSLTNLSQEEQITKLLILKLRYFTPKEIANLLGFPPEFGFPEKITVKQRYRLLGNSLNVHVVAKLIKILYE
Method: (§1) FIGS. 6A-6E show TRDMT1 Inhibitors specifically sensitizes cells to DNA damage agents. (FIG. 6A) SCE WT cells were transfected with TA-KR and were cultured with 2.5 μM/L compound YW-1842 or not for 6 hours, m^5C (n=3, 50 cells per replicated, Mean±SD) was stained and quantified. DR-GFP (FIG. 6B) or EJ5-GFP (FIG. 6C) cells were pre-treated with 2.5 μM/L compound YW-1842 for 6 h or TRDMT1 siRNA for 48 h, or DMSO. Then the cells were transfected with NLS-I-SceI plasmid to induce DSB. The efficiency of HR (FIG. 6B) or NHEJ (FIG. 6C) was analyzed by flow-cytometry (n=3, Mean f SD). (FIG. 6D) After seeding, MCF-7, HCC1954, and HCC1937 cells were pre-treated with or without 2.5 μM/L compound YW-1842 for 6 h, then cultured with chemotherapy drugs (1 μM/L Cisplatin; 1 μM/L ATRi AZ20; […]; 1 μM/L PARPi Olaparib for 10 days. The survival rate of these cells was analyzed (n=3, Mean±SD). (FIG. 6E) TRDMT1 KO U2OS cells were transfected with GFP-TRDMT1^WT or GFP-TRDMT1^G155V with or without 2.5 μM/L compound YW-1842, the survival rate of these cells after IR or Cisplatin was shown (n=3, Mean±SD).
The Olympus FV1000 confocal microscopy system (Cat. FIOPRDMYR-1, Olympus) and FV1000 software were used for the acquisition of images. Cells were cultured in 35 mm glass-bottom dishes (MatTek, P35GC-1.5-14-C) before observation. […] The intensity was measured by ImageJ 1.52i software. […]

[2] = test system: U2OS (EJ5-GFP) cells; experiment: EJ5-GFP NHEJ reporter assay; details: 2.5 μM/L, 6 h pre-treatment, TRDMT1 wild type cells
Method: as §1
Using a previously described method[Lan, L. et al. The ACF1 complex is required for DNA double-strand break repair in human cells. […] The GFP signal arising from the recombination (HR) or non-homologous end joining (NHEJ) events were measured by flow cytometry.

[3] = test system: HST578, MBAMD231, HCC1937, HCC1954 cancer cells; experiment: Cell survival assay, TRDMT1i alone (Example 19)
Method: FIGS. 14A-14C show TRDMT1i alone reduce cancer cell survival in a dose-dependent manner. (FIG. 14A) Survival rate of HR proficient (HR+) HST578 cancer cells with and without siBRCA1 and/or TRDMT1i YW-1842 at indicated dose. The survival rate of these cells was analyzed (n=3, Mean±SD). (FIG. 14B) Survival rate of MBAMD231 (HR+) and HCC1937 (HRD) cells. The survival rate of these cells was analyzed (n=3, Mean±SD). (FIG. 14C) Cell survival rate in different cancer cell lines via colony-forming assay with the treatment of Imatinib at indicated dose (n=3, mean+/−S.D.). Cell lines are listed in order with the expression level from SYCP2high to SYCP2low.
Cells were seeded in each 6-cm dish and cultured as described above. They were treated with drugs with indicated dose in medium after seeding. After 7-10 days, colonies were fixed and stained with 0.3% crystal violet in methanol, and the number of colonies was counted manually.

**Q.** What does the source list for `COc1cc2nc(-n3cc(-c4ccc(S(C)(=O)=O)cc4)cn3)nc(-c3ccsc3)c2cc1OC` [YW-1842, 6,7-dimethoxy-2-(4-(4-(methylsulfonyl)phenyl)-1H-pyrazol-1-yl)-4-(thiophen-3-yl)quinazoline]?
**A.** m^5C inhibitory activity ([1]; 2.5 μM/L, 6 hours, TA-KR sites (FIG. 6A)): almost equivalent to TRDMT1 depletion; inhibiting TRDMT1 recruitment, m^5C formation and HR efficiency at DNA damage sites ([1]; summary statement): performed well; non-homologous end joining (NHEJ) efficiency [2]: no obvious changes; sensitivity of HR deficient cells to TRDMT1i alone ([3]; HCC1937 (HRD) versus MBAMD231 (HR+)): more sensitive; killing of HCC1954 ([3]; HCC1954, HRD, high SYCP2): efficiently killed HCC1954; cancer cell survival, TRDMT1i alone ([3]; HR-proficient HST578 cells): kills HR-proficient cancer cells HST578 in a dose-dependent manner; TRDMT1i sensitivity on BRCA1 knockdown ([3]; HST578 cells with siBRCA1): significantly increased TRDMT1i sensitivity; killing across cancer cell lines by SYCP2 level and HR status ([3]; cell lines ordered SYCP2high to SYCP2low (FIG. 14C)): killed SYCP2-high cancer cell lines and HR deficient cells the most efficiently
